According to patent publication US20120034613A1, “Apparatus and Method for Testing Relationships Between Gene Expression and Physical Appearance of Skin” (NSE Products, Inc., priority 2010, published 2012):

Tested on: EpidermFT™ Skin Model (EFT-400) full thickness skin cultures
Assay: Affymetrix GeneChip HG U133 Plus 2.0 microarray global gene expression, agent-exposed vs untreated skin cultures
Format: cell-based, human
Settings: Salicin 0.5% vs Untreated Control, 24 hr treatment

## OCc1ccccc1O[C@@H]1O[C@H](CO)[C@@H](O)[C@H](O)[C@H]1O [Salicin, 2-(Hydroxymethyl)phenyl β-D-glucospyranoside]
  Direction UGCGL2 (218801_at): up
  Direction UST (205139_s_at): up
  Direction WIPI1 (203827_at): up
  Direction XPO1 (235927_at): up
  Direction ZFAND5 (217649_at): up
  Direction ZFP36L1 (211965_at): up
  Direction ZNF281 (228785_at): up
  Direction ZNF331 (219228_at): up
  Direction ZNF697 (227080_at): up
  Fold change ABHD2 (205566_at): 2.508
  Fold change ABHD2 (221815_at): 2.348
  Fold change ABHD2 (225337_at): 2.704
  Fold change ADAMTS5 (235368_at): 2.751
  Fold change ADAMTS6 (1570351_at): 2.37
  Fold change ADCYAP1 (230237_at): 2.573
  Fold change AHI1 (220841_s_at): 2.322
  Fold change AHI1 (221569_at): 2.667
  Fold change AKR1C1 (1562102_at): 2.331
  Fold change AKT3 (212607_at): 2.622
  Fold change AKT3 (212609_s_at): 2.3
  Fold change AKT3 (222880_at): 2.365
  Fold change AKT3 (224229_s_at): 2.751
  Fold change ALG9 (228817_at): 2.321
  Fold change ANKRD28 (213035_at): 2.361
  Fold change ANKRD28 (229307_at): 2.421
  Fold change ARMC8 (1555281_x_at): 2.299
  Fold change ARNT2 (202986_at): 2.361
  Fold change ATF3 (1554980_a_at): 2.623
  Fold change ATP2A3 (207522_s_at): 2.434
  Fold change BAG2 (209406_at): 2.774
  Fold change BCL2L11 (1558143_a_at): 2.347
  Fold change BNC2 (220272_at): 2.471
  Fold change BNC2 (235723_at): 2.707
  Fold change C1GALT1C1 (238989_at): 2.327
  Fold change C1orf67 /// DNAH14 (242283_at): 2.614
  Fold change C13orf33 (227058_at): 2.621
  Fold change CABLES1 (225532_at): 2.633
  Fold change CARD16 (1552701_a_at): 2.363
  Fold change CCR1 (205098_at): 2.474
  Fold change CDCP1 (1554110_at): 2.44
  Fold change CDR2 (209501_at): 2.488
  Fold change CHST2 (203921_at): 2.332
  Fold change CLGN (205830_at): 2.486
  Fold change CNOT3 (203239_s_at): 2.466
  Fold change CPM (241765_at): 2.574
  Fold change CPM (243403_x_at): 2.436
  Fold change CREM (207630_s_at): 2.309
  Fold change CUL4B (202213_s_at): 2.538
  Fold change CXCL1 (204470_at): 2.363
  Fold change CYP7B1 (207386_at): 2.782
  Fold change CYR61 (210764_s_at): 2.692
  Fold change DENND3 (212975_at): 2.471
  Fold change DENND5B (228551_at): 2.474
  Fold change DGKI (206806_at): 2.74
  Fold change DNAJB9 (202842_s_at): 2.613
  Fold change DNAJB9 (1554462_a_at): 2.666
  Fold change DNAJC10 (221781_s_at): 2.508
  Fold change DNAJC10 (221782_at): 2.553
  Fold change DOCK4 (205003_at): 2.383
  Fold change DOCK5 (230206_at): 2.653
  Fold change DOCK5 (230263_s_at): 2.362
  Fold change DOK6 (236290_at): 2.316
  Fold change DSEL (232825_s_at): 2.821
  Fold change DUSP4 (204015_s_at): 2.668
  Fold change DZIP1 (204557_s_at): 2.653
  Fold change EIF2AK3 (218696_at): 2.305
  Fold change ELL2 (214446_at): 2.557
  Fold change ELTD1 (219134_at): 2.637
  Fold change ENPP1 (205066_s_at): 2.414
  Fold change ENTPD7 (220153_at): 2.395
  Fold change EPS8 (202609_at): 2.334
  Fold change EREG (205767_at): 2.487
  Fold change ERO1LB (220012_at): 2.376
  Fold change FADS1 (208963_x_at): 2.411
  Fold change FADS1 (208964_s_at): 2.638
  Fold change FAM20A (226804_at): 2.437
  Fold change FAM107B (223058_at): 2.544
  Fold change FAM107B (223059_s_at): 2.476
  Fold change FAR2 (220615_s_at): 2.497
  Fold change FAT4 (219427_at): 2.428
  Fold change FEM1B (212374_at): 2.726
  Fold change FGF7 (1555103_s_at): 2.35
  Fold change FGF7 /// KGFLP1 /// KGFLP2 (1554741_s_at): 2.506
  Fold change FHOD3 (218980_at): 2.607
  Fold change FKBP11 (219117_s_at): 2.431
  Fold change FKBP11 (219118_at): 2.422
  Fold change FMN2 (1555471_a_at): 2.355
  Fold change FN1 (214701_s_at): 2.436
  Fold change FN1 (214702_at): 2.71
  Fold change FOXJ3 (217310_s_at): 2.327
  Fold change FPR1 (205119_s_at): 2.402
  Fold change GAS1 (204457_s_at): 2.783
  Fold change GCLM (203925_at): 2.646
  Fold change GCLM (236140_at): 2.667
  Fold change GEM (204472_at): 2.52
  Fold change GFPT1 (226886_at): 2.512
  Fold change GFPT2 (205100_at): 2.3
  Fold change GLIPR1 (204222_s_at): 2.366
  Fold change GRAMD1A (224807_at): 2.363
  Fold change GRAMD1B (212906_at): 2.401
  Fold change GUCY1A3 (221942_s_at): 2.594
  Fold change GUCY1A3 (229530_at): 2.498
  Fold change HERC3 (1554290_at): 2.372
  Fold change HEY1 (44783_s_at): 2.372
  Fold change HIST1H2AB /// HIST1H2AE (214469_at): 2.52
  Fold change HIST1H2AD /// HIST1H3A /// HIST1H3B /// HIST1H3C /// HIST1H3D /// HIST1H3E /// HIST1H3F /// HIST1H3G /// HIST1H3H /// HIST1H3I /// HIST1H3J (214472_at): 2.608
  Fold change HIST2H2AA3 /// HIST2H2AA4 (214290_s_at): 2.42
  Fold change HK2 (222305_at): 2.329
  Fold change HOXB2 (205453_at): 2.404
  Fold change HSD17B2 (204818_at): 2.766
  Fold change HSPA13 (202557_at): 2.665
  Fold change ID2 /// ID2B (213931_at): 2.802
  Fold change IGFBP5 (211958_at): 2.712
